Results as given in ChEMBL document CHEMBL5260838 (J Med Chem, 2019).
In brackets after ≈: the same amount, converted by molar mass.

Tests used:
[1] = target: T1, Sodium channel protein type 9 subunit alpha (Homo sapiens, UniProt Q15858); test: Displacement of [3H]GX-545 from human Nav1.7 alpha subunit expressed in HEK293 cells co-expressing beta1 subunit by liquid scintillation counting analysis; type: cell-based
[2] = target: T1, Sodium channel protein type 9 subunit alpha; test: Inhibition of human Nav1.7 alpha subunit expressed in HEK293 cells co-expressing beta1 subunit at -60 mV holding potential by whole-cell patch voltage clamp electrophysiology recording; type: cell-based
[3] = Lipophilicity, logD of the compound at pH 7.4; type: physicochemical; conditions: buffer
[4] = Cmax in Sprague-Dawley rat at 5 mg/kg, po; type: ADME, organism-based; design: dose 5 mg/kg, route po; conditions: in vivo
[5] = target: Sodium channel protein type 10 subunit alpha (Mus musculus) (UniProt Q6QIY3); test: Inhibition of TTX-resistant Nav1.8 in mouse dorsal root ganglion neuron at 10 uM by voltage clamp recording relative to control; type: tissue-based; conditions: DRG neuron
[6] = Volume of distribution at steady state in Sprague-Dawley rat at 1 mg/kg, iv; type: ADME, organism-based; conditions: in vivo, read-out: Vdss
[7] = Oral bioavailability in Sprague-Dawley rat at 5 mg/kg; type: ADME, organism-based; conditions: in vivo
[8] = test system: mouse breast cancer resistant protein (Bcrp); test: Apparent permeability from apical to basolateral side in MDCK-II cells expressing mouse breast cancer resistant protein; type: ADME, cell-based, Canis lupus familiaris; conditions: dog
[9] = target: Sodium channel protein type 9 subunit alpha (Mus musculus, UniProt Q62205); test: Inhibition of mouse Nav1.7 at -60 mV holding potential by PatchXpress automated voltage clamp electrophysiology technique
[10] = Oral bioavailability in FVB mouse at 30 mg/kg; type: ADME, organism-based; conditions: in vivo
[11] = Protein binding in mouse plasma; type: ADME, cell-free; conditions: read-out: PPB (converted)
[12] = target: Sodium channel protein type 1 subunit alpha (Homo sapiens, UniProt P35498); test: Inhibition of human Nav1.1 alpha subunit expressed in HEK293 cells co-expressing beta1 subunit at -40 mV holding potential by PatchXpress automated voltage clamp electrophysiology technique; type: cell-based
[13] = Clearance in Sprague-Dawley rat at 1 mg/kg, iv; type: ADME, organism-based; conditions: in vivo
[14] = Protein binding in human plasma; type: ADME, cell-free; conditions: read-out: PPB (converted)
[15] = Apparent permeability from apical to basolateral side in MDCK1 cells; type: ADME, cell-based, Canis lupus familiaris; conditions: dog, MDCK
[16] = Half-life in FVB mouse at 30 mg/kg, po; type: ADME, organism-based; conditions: in vivo
[17] = target: Sodium channel protein type 2 subunit alpha (Homo sapiens, UniProt Q99250); test: Inhibition of human Nav1.2 alpha subunit expressed in HEK293 cells co-expressing beta1 subunit at -35 mV holding potential by PatchXpress automated voltage clamp electrophysiology technique; type: cell-based
[18] = Kinetic solubility of compound; type: physicochemical; conditions: read-out: Kinetic_solubility
[19] = target: Sodium channel protein type 8 subunit alpha (Homo sapiens, UniProt Q9UQD0); test: Inhibition of human Nav1.6 alpha subunit expressed in HEK293 cells co-expressing beta1 subunit at -35 mV holding potential by PatchXpress automated voltage clamp electrophysiology technique; type: cell-based
[20] = test system: Mus musculus; test: Antinociceptive activity against aconitine-induced pain in FVB mouse model expressing human Nav 1.7 I848T mutant assessed as reduction in nociceptive behavior at 6 mg/kg administered 120 mins prior to aconitine administration and measured after 70 mins relative to control; type: functional; design: scale not given: the % may be the effect or the level left; conditions: time 190 min, 3.167 h
[21] = AUC in Sprague-Dawley rat at 5 mg/kg, po; type: ADME, organism-based; design: dose 5 mg/kg, route po; conditions: in vivo
[22] = Half-life in FVB mouse at 1 mg/kg, iv; type: ADME, organism-based; conditions: FVB, in vivo
[23] = test system: Mus musculus; test: Antinociceptive activity against aconitine-induced pain in FVB mouse model expressing human Nav 1.7 I848T mutant assessed as reduction in nociceptive behavior at 10 mg/kg administered 120 mins prior to aconitine administration and measured after 70 mins relative to control; type: functional; design: scale not given: the % may be the effect or the level left; conditions: time 190 min, 3.167 h
[24] = target: Sodium channel protein type 9 subunit alpha (Rattus norvegicus, UniProt O08562); test: Inhibition of rat Nav1.7 at -60 mV holding potential by PatchXpress automated voltage clamp electrophysiology technique
[25] = Clearance in FVB mouse at 1 mg/kg, iv; type: ADME, organism-based; conditions: in vivo
[26] = test system: MDR1; test: Apparent permeability from apical to basolateral side in MDCK1 cells expressing MDR1; type: ADME, cell-based, Canis lupus familiaris; conditions: dog, MDCK-MDR1
[27] = Protein binding in rat plasma; type: ADME, cell-free; conditions: read-out: PPB (converted)
[28] = test system: Mus musculus; test: Antinociceptive activity against aconitine-induced pain in FVB mouse model expressing human Nav 1.7 I848T mutant assessed as reduction in nociceptive behavior at 3 mg/kg administered 120 mins prior to aconitine administration and measured after 70 mins relative to control; type: functional; design: scale not given: the % may be the effect or the level left; conditions: time 190 min, 3.167 h
[29] = Volume of distribution at steady state in FVB mouse at 1 mg/kg, iv; type: ADME, organism-based; conditions: FVB, in vivo, read-out: Vdss
[30] = Half-life in Sprague-Dawley rat at 1 mg/kg, iv; type: ADME, organism-based; conditions: in vivo
[31] = Cmax in FVB mouse at 30 mg/kg, po; type: ADME, organism-based; design: dose 30 mg/kg, route po; conditions: in vivo
[32] = target: Sodium channel protein type 5 subunit alpha (Homo sapiens, UniProt Q14524); test: Inhibition of human Nav1.5 alpha subunit expressed in HEK293 cells co-expressing beta1 subunit at -60 mV holding potential by PatchXpress automated voltage clamp electrophysiology technique; type: cell-based
[33] = Half-life in Sprague-Dawley rat at 5 mg/kg, po; type: ADME, organism-based; conditions: in vivo
[34] = AUC in FVB mouse at 30 mg/kg, po; type: ADME, organism-based; design: dose 30 mg/kg, route po; conditions: in vivo
[35] = Volume of distribution at steady state in mouse at 1 mg/kg, iv; type: ADME, organism-based; conditions: in vivo, read-out: Vdss
[36] = Solubility of compound; type: physicochemical
[37] = Oral bioavailability in mouse at 30 mg/kg; type: ADME, organism-based; conditions: in vivo
[38] = AUC in mouse at 30 mg/kg, po; type: ADME, organism-based; design: dose 30 mg/kg, route po; conditions: in vivo
[39] = Cmax in mouse at 30 mg/kg, po; type: ADME, organism-based; design: dose 30 mg/kg, route po; conditions: in vivo

T1 sequence (Q15858 whole entry): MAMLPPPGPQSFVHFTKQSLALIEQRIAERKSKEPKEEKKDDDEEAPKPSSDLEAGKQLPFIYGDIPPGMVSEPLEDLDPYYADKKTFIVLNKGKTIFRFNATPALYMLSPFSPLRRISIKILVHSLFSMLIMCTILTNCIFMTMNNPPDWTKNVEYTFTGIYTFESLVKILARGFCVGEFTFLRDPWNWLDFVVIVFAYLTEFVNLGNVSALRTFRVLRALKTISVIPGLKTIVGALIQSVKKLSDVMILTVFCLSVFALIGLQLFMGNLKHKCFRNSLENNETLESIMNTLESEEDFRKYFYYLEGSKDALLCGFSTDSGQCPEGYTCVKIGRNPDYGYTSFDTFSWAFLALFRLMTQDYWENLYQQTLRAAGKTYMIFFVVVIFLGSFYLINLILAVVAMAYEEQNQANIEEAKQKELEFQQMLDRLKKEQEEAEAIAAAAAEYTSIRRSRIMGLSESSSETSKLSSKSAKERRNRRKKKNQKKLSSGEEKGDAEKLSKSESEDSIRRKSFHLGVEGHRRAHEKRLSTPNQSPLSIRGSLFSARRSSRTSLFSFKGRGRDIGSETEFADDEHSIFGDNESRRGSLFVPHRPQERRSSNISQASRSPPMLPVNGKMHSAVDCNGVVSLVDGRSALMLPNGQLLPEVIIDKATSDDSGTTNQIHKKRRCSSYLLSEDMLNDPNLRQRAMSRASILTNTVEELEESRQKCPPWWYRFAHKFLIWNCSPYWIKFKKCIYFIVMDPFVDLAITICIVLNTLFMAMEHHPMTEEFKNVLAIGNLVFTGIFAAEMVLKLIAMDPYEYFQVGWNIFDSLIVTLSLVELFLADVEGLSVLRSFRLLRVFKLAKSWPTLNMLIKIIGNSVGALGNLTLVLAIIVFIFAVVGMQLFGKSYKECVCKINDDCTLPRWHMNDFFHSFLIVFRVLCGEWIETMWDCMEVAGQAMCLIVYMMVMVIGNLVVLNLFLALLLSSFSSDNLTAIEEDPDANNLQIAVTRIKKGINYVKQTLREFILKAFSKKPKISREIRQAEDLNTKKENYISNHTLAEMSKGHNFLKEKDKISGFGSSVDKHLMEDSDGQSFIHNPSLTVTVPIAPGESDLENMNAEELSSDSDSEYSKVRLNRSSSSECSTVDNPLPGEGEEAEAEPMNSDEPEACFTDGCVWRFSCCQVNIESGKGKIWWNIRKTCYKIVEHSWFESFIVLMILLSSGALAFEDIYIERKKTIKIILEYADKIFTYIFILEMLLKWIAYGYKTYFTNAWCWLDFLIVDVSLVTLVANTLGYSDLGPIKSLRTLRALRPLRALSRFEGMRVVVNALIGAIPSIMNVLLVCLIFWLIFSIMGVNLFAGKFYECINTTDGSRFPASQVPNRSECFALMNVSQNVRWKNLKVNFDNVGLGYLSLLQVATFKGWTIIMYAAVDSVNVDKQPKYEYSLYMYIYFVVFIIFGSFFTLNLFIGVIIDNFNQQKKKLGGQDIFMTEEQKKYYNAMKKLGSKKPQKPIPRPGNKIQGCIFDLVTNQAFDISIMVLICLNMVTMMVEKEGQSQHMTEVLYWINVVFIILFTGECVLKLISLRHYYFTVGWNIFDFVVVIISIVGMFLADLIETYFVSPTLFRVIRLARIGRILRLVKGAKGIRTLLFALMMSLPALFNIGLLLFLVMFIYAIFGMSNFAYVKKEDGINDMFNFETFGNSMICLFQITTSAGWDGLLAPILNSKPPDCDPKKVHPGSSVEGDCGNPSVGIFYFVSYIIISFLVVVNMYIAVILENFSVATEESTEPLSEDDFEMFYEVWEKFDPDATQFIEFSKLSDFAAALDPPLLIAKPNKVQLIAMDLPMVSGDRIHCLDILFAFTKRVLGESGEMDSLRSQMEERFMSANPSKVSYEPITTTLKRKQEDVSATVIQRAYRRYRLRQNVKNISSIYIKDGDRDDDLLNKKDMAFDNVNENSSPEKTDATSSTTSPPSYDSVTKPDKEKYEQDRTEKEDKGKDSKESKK
Sequence of Sodium channel protein type 5 subunit alpha (Q14524 whole entry): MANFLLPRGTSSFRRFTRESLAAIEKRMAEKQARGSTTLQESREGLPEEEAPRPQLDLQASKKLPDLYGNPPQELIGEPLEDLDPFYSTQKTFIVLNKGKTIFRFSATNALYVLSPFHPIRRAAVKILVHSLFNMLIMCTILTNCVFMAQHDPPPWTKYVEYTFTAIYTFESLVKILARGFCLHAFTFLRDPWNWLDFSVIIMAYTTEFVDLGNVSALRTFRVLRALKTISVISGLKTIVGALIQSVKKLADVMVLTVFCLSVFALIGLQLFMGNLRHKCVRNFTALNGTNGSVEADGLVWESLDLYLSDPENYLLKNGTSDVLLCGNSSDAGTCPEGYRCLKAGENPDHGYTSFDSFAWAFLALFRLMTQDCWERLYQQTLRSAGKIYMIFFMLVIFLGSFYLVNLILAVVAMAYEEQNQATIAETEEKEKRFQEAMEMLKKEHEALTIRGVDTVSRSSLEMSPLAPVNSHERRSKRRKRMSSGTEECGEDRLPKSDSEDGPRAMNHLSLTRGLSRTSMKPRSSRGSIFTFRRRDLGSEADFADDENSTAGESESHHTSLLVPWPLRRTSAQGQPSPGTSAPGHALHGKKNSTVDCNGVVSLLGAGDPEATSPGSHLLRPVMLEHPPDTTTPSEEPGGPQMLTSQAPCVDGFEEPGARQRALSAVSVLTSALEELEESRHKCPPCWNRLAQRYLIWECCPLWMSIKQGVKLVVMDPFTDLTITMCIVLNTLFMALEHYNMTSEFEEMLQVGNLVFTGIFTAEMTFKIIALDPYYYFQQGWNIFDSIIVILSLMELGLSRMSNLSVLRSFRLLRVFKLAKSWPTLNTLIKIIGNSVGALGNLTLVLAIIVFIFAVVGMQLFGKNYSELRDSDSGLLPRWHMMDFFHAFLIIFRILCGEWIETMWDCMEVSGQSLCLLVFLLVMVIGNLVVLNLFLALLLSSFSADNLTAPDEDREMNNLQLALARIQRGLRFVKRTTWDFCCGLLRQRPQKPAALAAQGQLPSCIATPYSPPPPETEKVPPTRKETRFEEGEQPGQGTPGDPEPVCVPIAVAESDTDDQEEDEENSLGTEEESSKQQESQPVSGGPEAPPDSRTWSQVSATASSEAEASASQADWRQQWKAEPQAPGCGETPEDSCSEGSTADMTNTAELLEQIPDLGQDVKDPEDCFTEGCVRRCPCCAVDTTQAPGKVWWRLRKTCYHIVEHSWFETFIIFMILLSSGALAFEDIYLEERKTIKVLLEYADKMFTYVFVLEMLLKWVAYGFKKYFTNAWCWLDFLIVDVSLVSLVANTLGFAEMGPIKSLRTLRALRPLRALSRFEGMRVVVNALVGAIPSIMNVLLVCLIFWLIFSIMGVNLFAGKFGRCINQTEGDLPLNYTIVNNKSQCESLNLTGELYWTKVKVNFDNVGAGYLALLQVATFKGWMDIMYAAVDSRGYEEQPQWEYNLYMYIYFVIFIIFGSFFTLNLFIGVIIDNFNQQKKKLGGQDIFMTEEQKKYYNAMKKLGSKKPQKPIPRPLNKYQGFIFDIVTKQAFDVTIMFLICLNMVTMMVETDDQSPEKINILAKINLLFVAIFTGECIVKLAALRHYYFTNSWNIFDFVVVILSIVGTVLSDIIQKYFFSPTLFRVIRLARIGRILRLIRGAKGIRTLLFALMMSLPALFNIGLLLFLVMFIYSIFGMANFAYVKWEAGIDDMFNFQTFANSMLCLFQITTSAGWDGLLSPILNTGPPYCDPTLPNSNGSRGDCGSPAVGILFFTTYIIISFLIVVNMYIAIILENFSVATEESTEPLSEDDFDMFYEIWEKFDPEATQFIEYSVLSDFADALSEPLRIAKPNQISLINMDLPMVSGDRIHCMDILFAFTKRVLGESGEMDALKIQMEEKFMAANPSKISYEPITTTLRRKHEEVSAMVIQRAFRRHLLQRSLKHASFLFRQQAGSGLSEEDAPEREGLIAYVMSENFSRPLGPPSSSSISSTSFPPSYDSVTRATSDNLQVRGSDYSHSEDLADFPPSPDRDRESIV

In the case of `CS(=O)(=O)NC(=O)c1cc(Cl)c(OCC23CC4(F)CC(F)(CC(F)(C4)C2)C3)cc1F`, the IC50 [1] is reported as 2400 nM and the IC50 [2] is reported as 752 nM.

`CCc1cc(C(=O)NS(C)(=O)=O)c(F)cc1OCC12CC3CC(CC(C3)C1)C2` showed an IC50 [1] of 15 nM and an IC50 [2] of 6 nM.

With `CS(=O)(=O)NC(=O)c1cc(C2CC2)c(OCC2CCCCC2)cc1F` the IC50 [1] was 22 nM and the IC50 [2] was 0.7 nM.

Compound `CCC1(COc2cc(F)c(C(=O)NS(=O)(=O)C3CC3)cc2C2CC2)CCC(F)(F)CC1` has an IC50 [1] of 17 nM and an IC50 [2] of 5 nM.

With `CS(=O)(=O)NC(=O)c1cc(F)c(OCC23CC4CC(CC(C4)C2)C3)cc1F` the IC50 [1] was 640 nM and the IC50 [2] was 41 nM.

In the case of `CC1(COc2cc(F)c(C(=O)NS(=O)(=O)C3CC3)cc2C2CC2)CCC(C(F)(F)F)CC1` (configuration not stated), the IC50 [1] is reported as 10 nM and the IC50 [2] is reported as 6 nM.

`O=C(NS(=O)(=O)C1CC1)c1cc(C2CC2)c(OCC2CCC(F)(F)CC2)cc1F` gave an IC50 [1] of 33 nM.

For `CS(=O)(=O)NC(=O)c1cc(Cl)c(OC2CCCCC2)cc1F`, the logD ([3]; read-out: logD) was 1.3, the IC50 [1] was 1200 nM and the IC50 [2] was 260 nM.

Compound `CS(=O)(=O)NC(=O)c1cc(Cl)c(OCC23CC4CC(CC(C4)C2)C3)cc1Cl` has an IC50 [1] of 2300 nM and an IC50 [2] of 570 nM.

With `CS(=O)(=O)NC(=O)c1cc(Cl)c(OCC2CCCC2)cc1F` the logD ([3]; read-out: logD) was 1.1, the IC50 [1] was 520 nM and the IC50 [2] was 68 nM.

With `CS(=O)(=O)NC(=O)c1cc(Cl)c(OCCC2CCCCC2)cc1F` the logD ([3]; read-out: logD) was 1.5, the IC50 [1] was 500 nM and the IC50 [2] was 17 nM.

`CS(=O)(=O)NC(=O)c1cc(C2CC2)c(OCC23CC4CC(C2)C(F)(F)C(C4)C3)cc1F` gave an IC50 [1] of 8 nM and an IC50 [2] of 3.1 nM.

`CS(=O)(=O)NC(=O)c1cc(Cl)c(OCC23CC4CC(CC(F)(C4)C2)C3)cc1F` gave an IC50 [1] of 357 nM.

In the case of `Cc1cc(C(=O)NS(C)(=O)=O)c(F)cc1OCC12CC3CC(CC(C3)C1)C2`, the IC50 [1] is reported as 37 nM and the IC50 [2] is reported as 6 nM.

Work on `CC1(COc2cc(F)c(C(=O)NS(=O)(=O)C3CC3)cc2C2CC2)CCC(F)(F)CC1` yielded a Cmax [4] of 25 µM, an inhibition [5] of 26% and a logD ([3]; read-out: logD) of 1.4. It also gave a Vd [6] of 0.29 L/kg, a bioavailability [7] of 66% and a Papp A→B [8] of 0.4 ×10⁻⁶ cm/s. For the same compound, the IC50 [9] was 2.5 nM, the bioavailability [10] was 49% and the fraction unbound [11] was 0.002. For the same compound, the IC50 [12] was 48 nM, the clearance [13] was 0.4 mL/min/kg and the fraction unbound [14] was 0.004. The Papp A→B [15] was 22 ×10⁻⁶ cm/s, the half-life [16] was 15.6 h and the IC50 [17] was 6 nM. The solubility kinetic [18] was 32 µM (≈ 14.3 µg/mL), the IC50 [19] was 49 nM and the Activity [20] was 72%. The AUC [21] was 160 µM·h, the half-life [22] was 2.1 h and the Activity [23] was 84%. It also gave an IC50 [24] of 9 nM, a clearance [25] of 1.6 mL/min/kg and a Papp A→B [26] of 11 ×10⁻⁶ cm/s. For the same compound, the fraction unbound [27] was 0.002, the Activity [28] was 56% and the Vd [29] was 0.28 L/kg. The half-life [30] was 9 h, the Cmax [31] was 69 µM and the IC50 [32] was 260 nM. The half-life [33] was 16.9 h and the AUC [34] was 350 µM·h.

In the case of `COCCS(=O)(=O)NC(=O)c1cc(C2CC2)c(OCC2CCC(F)(F)CC2)cc1F`, the IC50 [1] is reported as 304 nM and the IC50 [2] is reported as 75 nM.

In the case of `CS(=O)(=O)NC(=O)c1cc(Cl)c(OCC2CCOCC2)cc1F`, the logD ([3]; read-out: logD) is reported as 0.21, the IC50 [1] is reported as greater than 10000 nM and the IC50 [2] is reported as 7400 nM.

For `CS(=O)(=O)NC(=O)c1cc(Cl)c(OCC2CCCCC2)cc1F`, the logD ([3]; read-out: logD) was 1.4, the IC50 [1] was 180 nM and the IC50 [2] was 43 nM.

In the case of `CS(=O)(=O)NC(=O)c1cc(Cl)c(OCC23CC4CC(CC(O)(C4)C2)C3)cc1F`, the IC50 [1] is reported as greater than 10000 nM and the IC50 [2] is reported as 2200 nM.

In the case of `CS(=O)(=O)NC(=O)c1ccc(OCC23CC4CC(CC(C4)C2)C3)c(Cl)c1`, the IC50 [1] is reported as 330 nM and the IC50 [2] is reported as 59 nM.

For `CC(C)c1cc(C(=O)NS(C)(=O)=O)c(F)cc1OCC12CC3CC(CC(C3)C1)C2`, the IC50 [1] was 28 nM and the IC50 [2] was 10 nM.

With `CS(=O)(=O)NC(=O)c1cc(Cl)c(OCC23CC4CC(C2)C(F)(F)C(C4)C3)cc1F` the IC50 [1] was 290 nM.

Compound `CS(=O)(=O)NC(=O)c1cc(Cl)c(OCCC2CC2)cc1F` has a logD ([3]; read-out: logD) of 0.4, an IC50 [1] of 2700 nM and an IC50 [2] of 440 nM.

For `CS(=O)(=O)NC(=O)c1cc(C2CC2)c(OCC23CC4CC(CC(C4)C2)C3)cc1F`, the IC50 [1] was 6 nM.

For `CS(=O)(=O)NC(=O)c1cc(Cl)c(OCC23CC4CC(CC(C4)C2)C3)cc1F`, the logD [3] was 3.5, the Vd [35] was 1.2 L/kg and the solubility [36] was 31 µM (≈ 12.9 µg/mL). For the same compound, the Papp A→B [15] was 13 ×10⁻⁶ cm/s, the bioavailability [37] was 100% and the AUC [38] was 240 µM·h. It also gave a Cmax [39] of 45 µM.
